The record followed here is patent US20260015436A1, “ANTIBODIES FOR CHELATED RADIONUCLIDES” (Hoffmann-La Roche Inc., priority 2018, published 2026).

In this series the test system is BxPC3 tumors. Nature of the series: Protocol 103: efficacy of CEA-PRIT, s.c. BxPC3 tumors. It counts as in vivo, SCID mice. As to conditions: result in words. The method, then: Step 1: Administration of a BsAb (i.v. or i.p.): The BsAb used in the studies binds Pb-DOTAM with high affinity and targets the tumor e.g. via CEA.
Step 2: Administration of CA (i.v. or i.p.): To allow efficient tumor accumulation of ^212Pb-DOTAM, circulating BsAb needs to be neutralized in the blood using a CA that blocks ^212Pb-DOTAM binding to unbound BsAb, without penetrating into the tumor and consequently blocking the pretargeted sites. The CA is administered once the BsAb has accumulated to a sufficient degree in the tumor, generally after 4-10 days. […]
The body weight (BW) of the study animals was measured at least 3 times per week, with additional measurements as needed depending on the health status. […]
where d indicates treatment day and 0 the baseline value. […] Tumor regression (TR) was calculated according to: […]
This study assessed the efficacy of CEA-PRIT using the CEA-DOTAM BsAb for treatment of s.c. BxPC3 tumors in mice. The therapy was administered either as a single treatment with 10 or 30 μCi of ^212Pb-DOTAM, or in three repeated cycles for each of the two radioactivity levels. […] Biodistributions were performed after the first and second cycle to confirm ^212Pb-DOTAM targeting and clearance, and the treatment efficacy was assessed in terms of TGI, TR, and survival. […]

Turning to `NC(=O)CN1CCN(CC(N)=O)CCN(CC(N)=O)CCN(CC(N)=O)CC1.[212Pb+2]` [^212Pb-DOTAM], the “radiation-induced toxicity / tolerability” value by setting is: (10 μCi) “safe radioactivity level”; (30 μCi) “approaching the maximum tolerated activity”.
